Laboratory results: patent publication US6872730B2, “Substituted benzofurans and benzothiophenes, methods of making and methods of use as integrin antagonists” (3-Dimensional Pharmaceuticals, Inc., priority 2001, dated 2005)

Target: T1, human αvβ3 (Homo sapiens, UniProt P05106+P06756)
T1 construct: purchased Chemicon CC1019
Assay: αvβ3-vitronectin assay
Format: binding
Conditions: ELISA plate coated with human αvβ3, biotinylated human vitronectin, room temperature; read-out: IC50 for inhibition of the αvβ3-vitronectin interaction
Method: The assay is based on the method of Dennis (Dennis, M. S., et al., Proteins 15: 312-321 (1993)). Costar 9018 flat-bottom 96-well ELISA plates were coated overnight at 4° C. with 100 μL/well of 10 μg/mL human fibrinogen (Calbiochem 341578) in 20 mM Tris-HCl pH 7.5, 150 mM NaCl, 2 mM CaCl2, 0.02% NaN3 (TAC buffer), and blocked for 1 hr at 37° C. with 150 μL/well of TAC buffer containing 0.05% Tween 20 and 1% bovine serum albumin (TACTB buffer). After washing 3 times with 200 μL/well of 10 mM Na2 HPO4 pH 7.5, 150 mM NaCl, 0.01% Tween 20 (PBST buffer), controls or test compound (0.027-20.0 μM) were mixed with 40 μg/mL human GPIIbIIIa (Enzyme Research Laboratories) in TACTB buffer, and 100 μL/well of these solutions were incubated for 1 hr at 37° C. The plate was then washed 5 times with PBST buffer, and 100 μL/well of a monoclonal anti-GPIIbIIIa antibody in TACTB buffer (1 μg/mL, Enzyme Research Laboratories MabGP2b3a) was incubated at 37° C. for 1 hr. After washing (5 times with PBST buffer), 100 μL /well of goat anti-mouse IgG conjugated to horseradish peroxidase (Kirkegaard & Perry 14-23-06) was incubated at 37° C. for 1 hr (25 ng/mL in PBST buffer), followed by a 6-fold PBST buffer wash. The plate was developed by adding 100 μL/well of 0.67 mg o-phenylenediamine dihydrochloride per mL of 0.012% H2O2, 22 mM sodium citrate, 50 mM sodium phosphate, pH 5.0 at room temperature. The reaction was stopped with 50 μL/well of 2M H2SO4, and the absorbence at 492 nm was recorded. Percent (%) inhibition was calculated from the average of three separate determinations relative to buffer controls (no test compound added), and a four parameter fit (Marquardt, D. W., J. Soc. Indust. Appl. Math. 11:431-441 (1963)) was used to estimate the half maximal inhibition concentration (IC50).
The assay was based on the method of Niiya (Niiya, K., et al., Blood 70:475-483 (1987)). […] Following a 5-fold PBST buffer wash, the plate was developed and results were calculated as described for the fibrinogen-IIbIIIa assay.

T1 sequence (P06756 31-889 limits assumed): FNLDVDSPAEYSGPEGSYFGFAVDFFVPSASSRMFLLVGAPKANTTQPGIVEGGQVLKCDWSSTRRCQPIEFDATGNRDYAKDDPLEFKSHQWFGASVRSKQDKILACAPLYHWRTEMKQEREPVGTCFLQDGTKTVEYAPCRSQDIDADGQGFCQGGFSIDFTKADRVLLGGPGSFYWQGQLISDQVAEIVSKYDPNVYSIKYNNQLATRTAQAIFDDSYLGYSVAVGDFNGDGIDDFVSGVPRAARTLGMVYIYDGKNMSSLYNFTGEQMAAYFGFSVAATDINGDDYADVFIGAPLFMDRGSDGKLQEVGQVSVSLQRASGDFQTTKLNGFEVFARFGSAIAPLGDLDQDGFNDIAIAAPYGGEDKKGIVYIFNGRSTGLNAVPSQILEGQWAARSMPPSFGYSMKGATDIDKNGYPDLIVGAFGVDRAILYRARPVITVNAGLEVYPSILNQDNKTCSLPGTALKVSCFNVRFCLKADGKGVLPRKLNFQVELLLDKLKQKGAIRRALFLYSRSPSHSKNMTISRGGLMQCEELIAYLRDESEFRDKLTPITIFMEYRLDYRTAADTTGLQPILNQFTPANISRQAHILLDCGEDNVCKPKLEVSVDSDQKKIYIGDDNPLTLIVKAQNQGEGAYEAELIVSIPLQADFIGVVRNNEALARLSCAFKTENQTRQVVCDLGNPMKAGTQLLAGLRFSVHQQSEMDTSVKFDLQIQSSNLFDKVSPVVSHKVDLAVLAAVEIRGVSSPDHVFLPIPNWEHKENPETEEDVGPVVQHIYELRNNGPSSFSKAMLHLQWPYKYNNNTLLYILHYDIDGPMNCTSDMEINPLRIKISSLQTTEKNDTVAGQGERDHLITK
T1 sequence (P06756 891-1048 partner limits assumed): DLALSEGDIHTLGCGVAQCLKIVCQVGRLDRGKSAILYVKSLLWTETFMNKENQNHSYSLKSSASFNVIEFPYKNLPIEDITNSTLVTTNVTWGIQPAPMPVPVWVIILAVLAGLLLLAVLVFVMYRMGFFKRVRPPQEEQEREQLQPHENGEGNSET
T1 sequence (P05106 27-788): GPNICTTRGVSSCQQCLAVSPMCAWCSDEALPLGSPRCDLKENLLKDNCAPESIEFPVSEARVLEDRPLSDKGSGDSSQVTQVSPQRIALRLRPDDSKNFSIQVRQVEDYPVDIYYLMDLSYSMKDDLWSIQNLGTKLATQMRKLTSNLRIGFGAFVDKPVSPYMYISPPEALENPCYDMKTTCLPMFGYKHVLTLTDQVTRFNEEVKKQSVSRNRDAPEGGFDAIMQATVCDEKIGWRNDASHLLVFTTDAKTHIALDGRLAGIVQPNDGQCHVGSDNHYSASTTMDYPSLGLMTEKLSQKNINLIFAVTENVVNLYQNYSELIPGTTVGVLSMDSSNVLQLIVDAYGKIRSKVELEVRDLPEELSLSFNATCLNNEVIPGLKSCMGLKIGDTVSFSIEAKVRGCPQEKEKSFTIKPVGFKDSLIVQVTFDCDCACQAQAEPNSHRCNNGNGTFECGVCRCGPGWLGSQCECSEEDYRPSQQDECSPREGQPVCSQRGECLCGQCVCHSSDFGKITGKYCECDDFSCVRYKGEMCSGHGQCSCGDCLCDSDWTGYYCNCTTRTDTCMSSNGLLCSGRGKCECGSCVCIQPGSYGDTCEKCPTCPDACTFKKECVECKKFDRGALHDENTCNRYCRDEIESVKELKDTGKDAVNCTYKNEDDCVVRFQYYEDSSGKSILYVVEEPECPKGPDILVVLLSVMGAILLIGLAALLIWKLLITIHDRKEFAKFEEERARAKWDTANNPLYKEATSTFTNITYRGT

Row | SMILES | IC50
1 | O=C(O)CCc1csc2cc(OCCc3ccc4c(n3)NCCC4)ccc12 [Example 2, 3-{6-[2-(5,6,7,8-Tetrahydro-[1,8]naphthyridin-2-yl)-ethoxy]-benzo[b]thiophen-3-yl}-propionic acid] | 8 nM
2 | CNc1cccc(CCOc2ccc3c(CCC(=O)O)csc3c2)n1 [Example 1, 3-(6-{2-[6-(methylamino)-2-pyridyl]ethoxy}benzo [b]thiophen-3-yl)propanoic acid] | 30 nM
3 | CNc1cccc(CCOc2ccc3c(CCC(=O)O)coc3c2)n1 [Example 3, 3-(6-{2-[6-(Methylamino)-2-pyridyl]ethoxy}benzo[b]furan-3-yl)propanoic acid] | 33 nM
